Measurements taken from paper PMC10577698, “Development of Novel ^11C-Labeled Selective Orexin-2 Receptor Radioligands for Positron Emission Tomography Imaging” (ACS Medicinal Chemistry Letters, 2023).
Where two headings read alike, the source gives them in different places.

Experiments:
[1] = Stability of radiotracer in saline; type: physicochemical; details: within 90 min
Method: Based on the favorable in vitro pharmacological and ADME properties, compounds 1 and 2 were labeled with carbon-11 and evaluated as OX2 PET radioligands. […] The reaction mixtures were then diluted with the HPLC buffer and purified by a semipreparative reverse HPLC to give [^11C]1 and [^11C]2 in 71% and 20% radiochemical yields (decay-corrected) with the molar activities of 210 GBq/μmol and 185 GBq/μmol, respectively.

[2] = tested on: rat brain; experiment: Dynamic PET imaging in Sprague-Dawley rats
Method: The imaging studies were conducted according to the previous literature6,7 with minor
modifications. PET scans were carried out by an Inveon PET scanner. Sprague-Dawley
rats were kept under anesthesia with 1-2% (v/v) isoflurane during the scan. The radiotracer
[11C]1 (37–42 MBq) or [11C]2 (32–37 MBq) was injected via a preinstalled catheter into
the tail vein. A dynamic scan in 3D mode was acquired for 60 min. For blocking studies, a
solution of elacridar (3 mg/kg) in 300 µL saline containing 10% DMSO, 40% polyethylene
glycol, and 5% Tween® 80 was injected at 20 min via the pre-embedded tail vein catheter
before PET tracer injection. An MR template of SD rats was applied for PET/MR merged
images. The radioactivity was decay-corrected and expressed as the standardized uptake
value (SUV). SUV = (radioactivity per mL tissue / injected radioactivity) x body weight.

[3] = target: T1, orexin 2 receptors (Rattus norvegicus, UniProt P56719); experiment: In vitro autoradiography in rat brain sections; details: for in vitro binding specificity: rat brain sections, autoradiography; for effect of blocker on radioactivity in OX2-rich brain regions: blocker 10 μM, autoradiography with [11C]1 or [11C]2, rat brain sections
T1 sequence (P56719 1-460): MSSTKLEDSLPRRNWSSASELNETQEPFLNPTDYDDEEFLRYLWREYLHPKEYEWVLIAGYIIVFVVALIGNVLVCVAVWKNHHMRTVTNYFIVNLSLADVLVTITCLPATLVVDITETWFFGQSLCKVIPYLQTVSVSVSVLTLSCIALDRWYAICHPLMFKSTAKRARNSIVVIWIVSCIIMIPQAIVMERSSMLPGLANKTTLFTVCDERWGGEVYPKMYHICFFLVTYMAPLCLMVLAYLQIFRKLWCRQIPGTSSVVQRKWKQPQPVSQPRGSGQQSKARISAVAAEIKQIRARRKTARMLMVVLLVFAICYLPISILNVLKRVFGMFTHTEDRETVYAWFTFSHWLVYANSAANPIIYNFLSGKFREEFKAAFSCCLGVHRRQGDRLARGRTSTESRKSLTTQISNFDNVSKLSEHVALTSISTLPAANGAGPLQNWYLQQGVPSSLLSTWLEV
Method: 2.5 In vitro autoradiography
The method for in vitro autoradiography was slightly modified from previous reports. 5 Rat
brain was cut into 20 μm sections, stored at −80 °C, and ready for the experiment. The rat
brain sections were preincubated with Tris−HCl buffer (50 mM) containing MgCl2 (2 mM)
and CaCl2 (1.2 mM) for 20 min at ambient temperature, followed by incubation with [11C]1
added to incubation solution. Then the brain sections were washed with ice-cold buffer for
three times and dipped in cold distilled water for 10 s. The brain sections were dried with
cold air. The exposure time for the phosphor plate in the autoradiography study is 1 h .

[4] = target: T2, CYP19A (Homo sapiens, UniProt P11511)
T2 sequence (P11511 1-503): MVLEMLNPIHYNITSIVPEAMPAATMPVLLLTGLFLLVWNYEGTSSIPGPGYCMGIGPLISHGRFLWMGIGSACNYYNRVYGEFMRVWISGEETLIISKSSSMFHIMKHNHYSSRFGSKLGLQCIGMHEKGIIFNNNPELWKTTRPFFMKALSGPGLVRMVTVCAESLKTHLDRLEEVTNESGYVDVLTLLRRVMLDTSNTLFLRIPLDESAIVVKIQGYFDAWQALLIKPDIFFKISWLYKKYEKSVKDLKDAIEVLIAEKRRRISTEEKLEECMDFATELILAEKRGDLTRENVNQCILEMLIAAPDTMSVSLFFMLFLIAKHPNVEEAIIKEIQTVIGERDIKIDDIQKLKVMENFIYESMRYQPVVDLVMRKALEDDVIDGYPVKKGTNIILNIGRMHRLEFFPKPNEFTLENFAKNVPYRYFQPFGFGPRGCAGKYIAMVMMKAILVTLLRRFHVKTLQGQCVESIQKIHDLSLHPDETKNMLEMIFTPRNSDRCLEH

[5] = target: CYP2C9 (Homo sapiens, UniProt P11712); experiment: biochemical
Chain of CYP2C9 (P11712 whole entry, species assumed): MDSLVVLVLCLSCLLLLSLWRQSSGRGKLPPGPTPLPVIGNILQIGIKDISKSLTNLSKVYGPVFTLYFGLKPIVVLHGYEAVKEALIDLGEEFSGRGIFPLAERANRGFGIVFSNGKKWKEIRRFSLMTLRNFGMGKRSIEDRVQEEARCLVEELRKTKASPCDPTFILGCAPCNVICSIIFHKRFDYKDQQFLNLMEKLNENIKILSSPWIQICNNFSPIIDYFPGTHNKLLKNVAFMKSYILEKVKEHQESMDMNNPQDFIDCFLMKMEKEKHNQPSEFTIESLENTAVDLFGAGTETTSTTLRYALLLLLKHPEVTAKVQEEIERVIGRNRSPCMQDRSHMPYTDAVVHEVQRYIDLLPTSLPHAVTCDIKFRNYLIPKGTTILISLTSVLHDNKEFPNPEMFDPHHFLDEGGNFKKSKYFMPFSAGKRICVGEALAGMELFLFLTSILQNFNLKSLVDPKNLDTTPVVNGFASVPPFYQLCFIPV
Method: (§1) Human OX2 receptor binding (agonist radioligand) assays were finished by Gifford
(§2) Bioscience Limited. Competition binding assays were carried out in 96-well polypropylene
(§3) plates in a final volume of 250 µL per well. To each well were added 150 µL Human OX2
(§4) Receptor Membranes (MultiSpan Inc, MC1034), 50 µL of non-specific or test compound
(§5) or buffer (50 mM Tris, 5 mM MgCl2, 0.1 mM EDTA, pH 7.4), and 50 µL radioligand
(§6) ([3H]EMPA) solution in the buffer. The plate was incubated at 30 °C for 60 minutes with
(§7) gentle agitation. The incubation was stopped by vacuum filtration onto presoaked (Tris
(§8) buffer with PEI) GF/C filters using a 96-well FilterMate™ harvester, followed by 5 washes
(§9) with ice-cold wash buffer (50 mM Tris, 5 mM MgCl2, 0.1 mM EDTA, pH 7.4). Filters were
(§10) then dried under a warm air stream and sealed in polyethylene, a scintillation cocktail was
(§11) specific binding. Data were fitted using the non-linear curve fitting routines in Prism®
(§12) (Graphpad Software Inc) to determine IC50. Ki was subsequently calculated using the
(§13) CYP enzymes and hERG inhibition assays were finished by Reaction Biology Corporation.

[6] = target: CYP2C19 (Homo sapiens, UniProt P33261); experiment: biochemical
Chain of CYP2C19 (P33261 whole entry, species assumed): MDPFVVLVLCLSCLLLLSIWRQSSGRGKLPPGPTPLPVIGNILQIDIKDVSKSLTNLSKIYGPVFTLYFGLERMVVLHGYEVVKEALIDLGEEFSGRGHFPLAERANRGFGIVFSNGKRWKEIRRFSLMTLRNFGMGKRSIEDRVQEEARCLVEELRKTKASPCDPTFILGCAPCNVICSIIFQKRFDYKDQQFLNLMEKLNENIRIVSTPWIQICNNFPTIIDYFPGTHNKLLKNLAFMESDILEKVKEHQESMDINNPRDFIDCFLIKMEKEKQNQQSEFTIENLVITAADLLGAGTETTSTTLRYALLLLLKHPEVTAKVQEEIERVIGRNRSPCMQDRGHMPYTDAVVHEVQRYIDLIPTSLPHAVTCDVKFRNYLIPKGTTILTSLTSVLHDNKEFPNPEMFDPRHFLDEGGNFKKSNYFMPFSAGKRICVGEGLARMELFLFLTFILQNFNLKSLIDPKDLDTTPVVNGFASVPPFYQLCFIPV
Description: as §13

[7] = target: CYP2D6 (Homo sapiens, UniProt P10635); experiment: biochemical
Chain of CYP2D6 (P10635 whole entry, species assumed): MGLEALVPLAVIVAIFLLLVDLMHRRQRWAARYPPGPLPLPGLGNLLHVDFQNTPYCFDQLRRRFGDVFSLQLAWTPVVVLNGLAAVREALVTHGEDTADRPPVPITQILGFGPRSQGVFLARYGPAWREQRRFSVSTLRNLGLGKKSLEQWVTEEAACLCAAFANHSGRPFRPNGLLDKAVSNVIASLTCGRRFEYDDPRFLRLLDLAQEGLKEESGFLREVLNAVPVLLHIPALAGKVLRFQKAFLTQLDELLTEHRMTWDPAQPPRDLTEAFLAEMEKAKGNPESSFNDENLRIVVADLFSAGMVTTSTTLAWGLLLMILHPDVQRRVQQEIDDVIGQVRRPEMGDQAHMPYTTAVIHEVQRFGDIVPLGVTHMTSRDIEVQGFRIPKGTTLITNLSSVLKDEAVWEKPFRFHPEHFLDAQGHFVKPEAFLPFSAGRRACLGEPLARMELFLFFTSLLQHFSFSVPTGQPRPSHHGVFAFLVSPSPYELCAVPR
Description: as §13

[8] = target: CYP3A4 (Homo sapiens, UniProt P08684); experiment: biochemical
Chain of CYP3A4 (P08684 whole entry, species assumed): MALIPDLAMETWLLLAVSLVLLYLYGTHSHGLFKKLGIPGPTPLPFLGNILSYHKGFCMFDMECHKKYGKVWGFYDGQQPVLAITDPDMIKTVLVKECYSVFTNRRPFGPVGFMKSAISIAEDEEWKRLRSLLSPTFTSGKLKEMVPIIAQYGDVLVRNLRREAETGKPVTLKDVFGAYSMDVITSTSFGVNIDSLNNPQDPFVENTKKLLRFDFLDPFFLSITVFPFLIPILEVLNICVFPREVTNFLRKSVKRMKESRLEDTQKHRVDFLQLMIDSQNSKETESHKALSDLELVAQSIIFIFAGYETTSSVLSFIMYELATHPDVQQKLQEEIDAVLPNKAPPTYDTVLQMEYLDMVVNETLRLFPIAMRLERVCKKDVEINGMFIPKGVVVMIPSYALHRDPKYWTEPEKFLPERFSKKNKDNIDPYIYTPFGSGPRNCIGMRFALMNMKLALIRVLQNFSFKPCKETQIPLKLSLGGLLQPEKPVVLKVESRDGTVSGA
Description: as §13

[9] = target: hERG (Homo sapiens, UniProt Q12809); experiment: biochemical
Chain of hERG (Q12809 whole entry): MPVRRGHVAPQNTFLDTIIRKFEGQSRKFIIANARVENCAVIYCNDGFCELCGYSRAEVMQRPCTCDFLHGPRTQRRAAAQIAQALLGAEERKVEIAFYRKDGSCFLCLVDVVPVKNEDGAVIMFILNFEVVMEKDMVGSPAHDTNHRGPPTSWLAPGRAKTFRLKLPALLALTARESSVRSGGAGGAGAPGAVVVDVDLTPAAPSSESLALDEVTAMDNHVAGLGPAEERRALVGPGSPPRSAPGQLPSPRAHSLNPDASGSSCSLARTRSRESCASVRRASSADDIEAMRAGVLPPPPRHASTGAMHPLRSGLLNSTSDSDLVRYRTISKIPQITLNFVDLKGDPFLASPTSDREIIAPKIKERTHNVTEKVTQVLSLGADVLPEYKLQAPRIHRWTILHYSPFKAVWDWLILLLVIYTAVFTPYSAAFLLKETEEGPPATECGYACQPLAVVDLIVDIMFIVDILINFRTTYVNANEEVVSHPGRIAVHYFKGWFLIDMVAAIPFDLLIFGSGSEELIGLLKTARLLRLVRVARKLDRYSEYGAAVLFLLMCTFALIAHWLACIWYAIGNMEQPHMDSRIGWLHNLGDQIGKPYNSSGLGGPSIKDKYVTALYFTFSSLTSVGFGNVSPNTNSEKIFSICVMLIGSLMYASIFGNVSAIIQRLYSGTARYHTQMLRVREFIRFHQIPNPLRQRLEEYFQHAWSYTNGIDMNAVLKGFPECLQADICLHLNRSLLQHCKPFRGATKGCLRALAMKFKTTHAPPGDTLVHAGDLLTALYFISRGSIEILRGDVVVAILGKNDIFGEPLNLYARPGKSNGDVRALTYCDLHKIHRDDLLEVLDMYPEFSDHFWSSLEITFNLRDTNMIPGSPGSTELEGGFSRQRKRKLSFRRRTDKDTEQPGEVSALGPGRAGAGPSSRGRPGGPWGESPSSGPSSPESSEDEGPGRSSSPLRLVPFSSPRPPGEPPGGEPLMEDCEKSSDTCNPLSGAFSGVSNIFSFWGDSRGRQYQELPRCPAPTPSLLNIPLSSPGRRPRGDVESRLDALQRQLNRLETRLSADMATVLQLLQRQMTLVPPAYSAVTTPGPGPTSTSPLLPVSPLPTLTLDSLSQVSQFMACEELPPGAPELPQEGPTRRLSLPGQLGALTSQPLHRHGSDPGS
Method: as §1, §2, §3, §4, §5, §6, §7, §8, §9, §10, §11, §12, §13

[10] = target: T3, CYP1A2 (Homo sapiens, UniProt P05177); experiment: CYP450 inhibition assay
T3 sequence (P05177 1-516): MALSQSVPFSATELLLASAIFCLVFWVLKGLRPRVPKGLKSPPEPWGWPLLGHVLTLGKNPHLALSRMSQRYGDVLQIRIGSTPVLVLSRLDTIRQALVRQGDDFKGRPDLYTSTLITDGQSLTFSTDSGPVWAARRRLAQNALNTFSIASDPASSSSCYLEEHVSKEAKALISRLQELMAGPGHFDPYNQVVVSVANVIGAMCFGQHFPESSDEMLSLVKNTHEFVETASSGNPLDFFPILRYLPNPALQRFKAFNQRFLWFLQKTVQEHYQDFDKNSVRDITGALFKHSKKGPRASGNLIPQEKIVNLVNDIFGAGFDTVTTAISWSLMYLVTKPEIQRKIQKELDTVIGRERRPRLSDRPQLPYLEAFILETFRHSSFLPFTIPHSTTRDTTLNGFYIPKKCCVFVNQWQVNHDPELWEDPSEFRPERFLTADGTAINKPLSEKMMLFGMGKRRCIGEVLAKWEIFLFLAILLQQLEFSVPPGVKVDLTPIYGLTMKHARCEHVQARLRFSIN
Method: as §1, §2, §3, §4, §5, §6, §7, §8, §9, §10, §11, §12, §13

[11] = target: T4, human orexin 2 receptor (Homo sapiens, UniProt O43614); experiment: Human OX2 receptor radioligand ([3H]EMPA) competition binding assay; details: for Selectivity (OX2R/OX1R): Figure 4b
T4 sequence (O43614 1-444): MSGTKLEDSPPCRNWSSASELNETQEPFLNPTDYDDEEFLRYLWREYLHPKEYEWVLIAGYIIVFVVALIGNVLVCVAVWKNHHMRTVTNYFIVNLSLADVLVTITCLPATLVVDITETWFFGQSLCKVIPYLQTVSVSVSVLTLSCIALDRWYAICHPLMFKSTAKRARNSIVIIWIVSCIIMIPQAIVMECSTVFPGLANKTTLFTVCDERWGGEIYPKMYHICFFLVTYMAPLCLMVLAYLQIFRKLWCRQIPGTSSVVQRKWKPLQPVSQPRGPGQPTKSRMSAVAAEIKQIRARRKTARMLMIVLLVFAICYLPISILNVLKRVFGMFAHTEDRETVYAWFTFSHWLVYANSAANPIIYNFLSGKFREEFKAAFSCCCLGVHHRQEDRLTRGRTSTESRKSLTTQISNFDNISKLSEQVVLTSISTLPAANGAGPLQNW
Method: as §1, §2, §3, §4, §5, §6, §7, §8, §9, §10, §11, §12, §13

[12] = target: peripheral benzodiazepine receptor (Rattus norvegicus, UniProt P16257); experiment: Off-target binding (NIMH PDSP), peripheral benzodiazepine receptor
[13] = tested on: OX2R; set-up: method as in PMID 19751316; details: cited from earlier work
[14] = SD rats pretreated with Elacridar 3 mg/kg 20 min before tracer

Molecule | stability in saline [1] | in vitro binding specificity [3] | IC50 [4] [µM] | IC50 [5] [µM] | IC50 [6] [µM] | IC50 [7] [µM] | IC50 [8] [µM] | IC50 [9] [µM] | IC50 [10] [µM] | effect of blocker on radioactivity in OX2-rich brain regions [3] | Ki [11] [µM] | target selectivity OX2/OX1 [11] [folds] | Selectivity (OX2R/OX1R) [11] | further results
CCN(Cc1ccccc1)C(=O)CN(c1ccc(O[11CH3])nc1)S(=O)(=O)c1ncccc1C [[^11C]2] | stable | good to excellent in vitro binding specificity |  |  |  |  |  |  |  |  |  |  |  | highest radioactivity levels in hippocampus and cerebellum [2, 14]: 0.9 SUV; radioactivity level after washout in hippocampus and cerebellum [2, 14]: 0.3 SUV; brain uptake ([2]; baseline PET, SD rats): poor brain uptake; highest radioactivity levels in hippocampus and cerebellum ([2]; baseline, SD rats, 2 min postadministration of tracer): around 0.4 SUV; radioactivity level after washout in hippocampus and cerebellum ([2]; baseline, SD rats, 60 min scan): 0.2 SUV; bound radioactivity levels in hippocampus and cerebellum after blocking ([2]; preadministration of EMPA 1 mg/kg i.v., SD rats): did not remarkably reduce
CCN(Cc1ccccc1)C(=O)CN(c1ccc(OC)nc1)S(=O)(=O)c1ncccc1C [Compound 2] |  |  | > 5 | > 5 | > 5 | > 5 | > 5 | > 100 | > 5 | remarkably diminished the radioactivity | 0.0022 | > 600 | 1220 | IC50 ([11]; read-out: IC50/OX2, [3H]EMPA competition, human OX2 receptor membranes): 0.0044 µM
CCN(Cc1ccccc1)C(=O)CN(c1ccccc1OC)S(=O)(=O)c1ncccc1C [Compound 1] |  |  | > 5 | > 5 | > 5 | > 5 | > 5 | > 100 | > 5 | remarkably diminished the radioactivity | 0.0036 | > 600 | 601 | Ki [12]: 0.253 µM; IC50 [11]: 0.0071 µM
CCN(Cc1ccccc1)C(=O)CN(c1ccccc1O[11CH3])S(=O)(=O)c1ncccc1C [[^11C]1] | stable | good to excellent in vitro binding specificity |  |  |  |  |  |  |  |  |  |  |  | 
orexin-B: endogenous neuropeptide ligand, a 28 amino acid peptide |  |  |  |  |  |  |  |  |  |  |  |  |  | selectivity toward OX2R against OX1R [13]: > 10 folds
